Structures are written as SMILES.

A word on the Ki: it is a dissociation constant, usually derived from enzyme kinetics or from competition with a known ligand.

One assay addresses T1, Human Liver ALP (Homo sapiens, UniProt P05186).
T1 sequence (P05186 18-502 limits assumed): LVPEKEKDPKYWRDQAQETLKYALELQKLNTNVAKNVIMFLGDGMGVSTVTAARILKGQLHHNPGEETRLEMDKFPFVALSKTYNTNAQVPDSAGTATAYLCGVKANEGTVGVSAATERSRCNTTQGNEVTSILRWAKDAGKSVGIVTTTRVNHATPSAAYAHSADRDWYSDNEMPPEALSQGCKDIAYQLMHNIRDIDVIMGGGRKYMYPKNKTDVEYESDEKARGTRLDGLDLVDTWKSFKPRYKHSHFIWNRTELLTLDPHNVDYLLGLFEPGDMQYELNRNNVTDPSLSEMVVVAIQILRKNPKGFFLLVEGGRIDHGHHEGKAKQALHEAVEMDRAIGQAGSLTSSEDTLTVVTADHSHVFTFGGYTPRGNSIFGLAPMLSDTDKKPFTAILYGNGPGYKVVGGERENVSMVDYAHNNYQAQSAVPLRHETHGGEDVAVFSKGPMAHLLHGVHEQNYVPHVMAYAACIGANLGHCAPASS
Briefly: Ki of inhibitors for human liver ALP (Table 1). It counts as biochemical. Particulars: Enzyme: Human Liver. The source says: Another approach to reduce the effects of the human ALPs is to use inhibitors of ALPs in the substrate solution.

Assay [1] addresses T2, ALPs in Sarcoma 180/TG ascites cells (Mus musculus, UniProt P09242).
T2 construct: host or cells: Sarcoma 180/TG ascites cells
T2 sequence (P09242 18-502 limits assumed): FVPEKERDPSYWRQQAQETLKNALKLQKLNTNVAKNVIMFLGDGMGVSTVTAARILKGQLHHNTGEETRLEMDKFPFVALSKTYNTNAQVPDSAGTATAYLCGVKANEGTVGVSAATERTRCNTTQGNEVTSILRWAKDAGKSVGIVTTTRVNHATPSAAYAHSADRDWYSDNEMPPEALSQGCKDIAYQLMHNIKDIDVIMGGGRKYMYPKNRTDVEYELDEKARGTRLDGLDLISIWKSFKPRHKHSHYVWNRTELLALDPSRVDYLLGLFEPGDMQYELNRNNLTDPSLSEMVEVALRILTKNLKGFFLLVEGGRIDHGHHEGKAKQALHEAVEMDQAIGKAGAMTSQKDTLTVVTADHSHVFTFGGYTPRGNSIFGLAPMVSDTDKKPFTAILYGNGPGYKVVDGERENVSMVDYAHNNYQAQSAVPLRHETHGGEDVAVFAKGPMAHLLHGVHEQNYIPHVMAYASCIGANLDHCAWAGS
Particulars: J. Med. Chem. 1977, 20: 563-566; cited from earlier work.

Assay [2] relates to endogenous ALP (high molecular weight and/or elevated normal ALP) in patient serum samples. Briefly: Background signal from endogenous ALP of patient serum samples on Stratus Fluorometric Analyzer, using each substrate/wash composition. Further details: species or system human. Particulars: patient serum Samples 1-3 (FIGS. 1-3); ALP conjugate, 4-MUP substrate; rate in mv/min. Here is the method: Three carcinoembryonic antigen (CEA) positive patient serum samples (Samples 1, 2, and 3) were identified as having high molecular weight ALP and/or elevated levels of normal ALP. These samples were tested using the compositions of this invention. The patient samples were evaluated on an automated immunoassay analyzer (the Stratus^R Fluorometric Analyzer from Baxter Diagnostics Inc.) which utilizes an ALP conjugate and a 4-MUP substrate. This automated analyzer combines the wash step with the substrate addition step. See, U.S. Pat. No. 4,517,288. The commercially available substrate composition (XWS) has the dual function of washing the solid phase and initiating the ALP reaction. […]
(§1) The samples were evaluated on the analyzer using each composition as the substrate/wash. […]
Five patient samples, Samples 1, 2, and 3 (as described in Example 1), Sample 4 (which originated from a patient who tested positive for colon cancer) and Sample 5 (which originated from a patient who tested positive for breast cancer) were identified as having high molecular weight ALP and/or elevated levels of normal ALP. These samples were evaluated using the compositions of this invention. The patient samples were evaluated on the automated immunoassay analyzer described in Example 1. […]
as §1

In turn, `Brc1ccc([C@H]2CN3CCSC3=N2)cc1` [Bromolevamisole] gave a Ki on Human Liver ALP of 98.5 µM.
On to `C1=CN2CC(c3ccc4ccccc4c3)N=C2S1` (stereo not shown) [Naphthyl, 5,6-Dihydro-6-(2-naphthyl)imidazo-[2,1-b]thiazole], for which the Ki was about 1 µM in assay [1] and 30.3 µM at Human Liver ALP. For the same compound, in assay [2], the “background signal generated from endogenous ALP / false positive reading” value is “substantially lowers the background signal”.
